Assay results taken from ChEMBL document CHEMBL1159210, “The arenarans, sesquiterpene ethers from the marine sponge Dysidea arenaria” (J Nat Prod, 1995).
Values after ≈ are worked out from the molar mass of the structure shown. Active and inactive are the calls of the source. The calls are words filed in the database; no cut-off is given here.

What was measured:
Format in all cases: functional, cell-based
HT-29 = assay: Cytotoxicity against human HT-29 cells
HCT-29 = assay: Cytotoxicity against human HCT29 cells
A549 = assay: Cytotoxicity against human A549 cells
P388 = assay: Cytotoxicity against mouse P388 cells

Question: How did the Activity (HT-29) turn out when CC1(C)CCC[C@]2(C)OC[C@H]3O[C@@]3(C)CC[C@@H]12 was run?
Answer: inactive

Question: And the Activity (HCT-29)?
Answer: inactive

Question: And the Activity (A549)?
Answer: inactive

Question: And the Activity (P388)?
Answer: inactive

Question: Which results are given for C/C1=C/CO[C@@]2(C)CCCC(C)(C)[C@@H]2CC1 [ARENARAN A]?
Answer: IC50 (HT-29): 9.11 µg/mL (≈ 41 µM); IC50 (HCT-29): 5.28 µg/mL (≈ 23.7 µM); IC50 (A549): 9.51 µg/mL (≈ 42.8 µM); IC50 (P388): 3.17 µg/mL (≈ 14.3 µM)
